The text below walks through data of PMC2719767 (Bioorganic & medicinal chemistry, 2008).

Where a name gives a salt, the structure may show the parent alone.

Test [1] has as its target T1, D4 receptor (Homo sapiens, UniProt P21917).
T1 sequence (P21917 1-419): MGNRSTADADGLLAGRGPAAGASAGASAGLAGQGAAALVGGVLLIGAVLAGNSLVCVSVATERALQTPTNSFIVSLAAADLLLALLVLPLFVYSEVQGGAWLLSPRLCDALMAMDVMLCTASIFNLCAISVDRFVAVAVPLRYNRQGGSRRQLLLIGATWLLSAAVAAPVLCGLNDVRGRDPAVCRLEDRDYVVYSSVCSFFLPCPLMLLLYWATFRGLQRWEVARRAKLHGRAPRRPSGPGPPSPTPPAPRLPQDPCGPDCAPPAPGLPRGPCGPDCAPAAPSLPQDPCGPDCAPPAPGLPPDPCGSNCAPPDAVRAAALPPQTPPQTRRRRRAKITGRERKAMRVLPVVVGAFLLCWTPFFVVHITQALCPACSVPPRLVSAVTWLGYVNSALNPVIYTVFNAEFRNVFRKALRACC
Description: D4 receptor binding affinity, Pfizer laboratories. The settings on record: for D2/D4: Table 2, ratio of Ki values, Pfizer laboratories data.

For test [2], the target named is T1, D4 receptor. As to the kind of experiment: D4 receptor binding affinity, NIMH-PDSP.
The target in another test is D3 receptor (Homo sapiens, UniProt P35462). As to the kind of experiment: D3 receptor binding affinity, NIMH-PDSP.
Sequence of D3 receptor (P35462 whole entry): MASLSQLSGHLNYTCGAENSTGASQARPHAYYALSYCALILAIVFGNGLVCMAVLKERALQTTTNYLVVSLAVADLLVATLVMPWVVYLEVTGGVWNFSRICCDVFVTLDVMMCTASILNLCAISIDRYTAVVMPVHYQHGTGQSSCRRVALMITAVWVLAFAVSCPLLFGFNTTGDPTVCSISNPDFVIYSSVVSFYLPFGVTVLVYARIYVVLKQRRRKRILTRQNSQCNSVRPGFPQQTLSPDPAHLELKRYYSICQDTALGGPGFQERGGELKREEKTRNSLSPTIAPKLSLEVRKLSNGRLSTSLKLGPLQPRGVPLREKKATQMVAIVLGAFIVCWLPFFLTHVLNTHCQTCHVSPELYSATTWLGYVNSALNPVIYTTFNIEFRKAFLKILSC
For test [3], the target named is T2, D2 receptor (Homo sapiens, UniProt P14416). As to the kind of experiment: D2 receptor binding affinity, NIMH-PDSP.
T2 sequence (P14416 whole entry): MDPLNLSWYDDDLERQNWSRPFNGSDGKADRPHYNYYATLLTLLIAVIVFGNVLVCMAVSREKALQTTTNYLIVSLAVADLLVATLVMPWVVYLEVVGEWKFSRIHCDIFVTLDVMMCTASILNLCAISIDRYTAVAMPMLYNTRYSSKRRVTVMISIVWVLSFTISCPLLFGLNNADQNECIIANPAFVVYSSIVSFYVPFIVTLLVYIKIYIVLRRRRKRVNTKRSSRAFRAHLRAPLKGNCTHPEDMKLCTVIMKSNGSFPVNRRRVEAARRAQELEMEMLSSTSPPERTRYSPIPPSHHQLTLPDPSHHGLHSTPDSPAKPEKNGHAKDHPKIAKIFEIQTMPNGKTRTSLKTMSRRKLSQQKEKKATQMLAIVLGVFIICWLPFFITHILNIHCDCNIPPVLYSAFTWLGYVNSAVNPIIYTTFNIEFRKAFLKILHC
For test [4], the target named is T2, D2 receptor. Description: D2 receptor binding affinity, Pfizer laboratories. The settings on record: same assay procedure in the same laboratory.
For test [5], the target named is T2, D2 receptor. The settings on record: cloned human D2-like receptors; ref [11]; cited from earlier work.
The target of test [6] is T1, D4 receptor. As to conditions: cloned human D2-like receptors; ref [11]; cited from earlier work.
[7] abbreviates: Table 2, NIMH-PDSP data, MPA = Missed primary assay threshold of 50% inhibition.

For `c1cnc(N2CCN(Cc3c[nH]c4ncccc34)CC2)nc1` [Compound 15, 3-{(4-(pyrimidin-2-yl)piperazin-1-yl)methyl}-1H-pyrrolo[2,3-b]pyridine], the D2/D4 at D4 receptor [1] amounted to 21.
As a reminder, the Ki is a measure of affinity in units of concentration, obtained from inhibition or displacement. A lower Ki goes with a stronger hold on the target. Molecule `Clc1ccc(N2C3CCC2CN(Cc2c[nH]c4ncccc24)CC3)cc1` (stereo not drawn) [Compound 9, 3-[(1H-pyrrolo[2,3-b]pyridin-3-yl)methyl]-9-(4-chlorophenyl)-3,9-diazabicyclo[4.2.1]nonane] came in with a D2/D4 at D4 receptor [2] of more than 17. For the same molecule, the Ki on D4 receptor [2] is 0.584 ± 0.115 µM; on D3 receptor, 0.335 ± 0.178 µM; on D2 receptor [3] it was more than 10 µM.
As for `OC1(c2ccc(Cl)cc2)CCN(Cc2c[nH]c3ncccc23)C1` (stereo not drawn) [Compound 13, 3-(4-chlorophenyl)-1-(1H-pyrrolo[2,3-b]pyridin-3-ylmethyl)pyrrolidin-3-ol], the “Ki ± SEM, D3” value at D3 receptor (setting [7]) was “MPA”. Also, the “Ki ± SEM, D2” value on D2 receptor [3] (setting [7]) is listed as “MPA”.
Regarding `O=C(CCCN1CC2CC1N(c1ccc(Cl)cc1)C2)c1ccc(F)cc1` (stereo not drawn) [Compound 10], on D4 receptor [1], the D2/D4 is on record as 0.33.
For `Clc1ccc(N2CCCN(Cc3c[nH]c4ncccc34)CC2)cc1` [Compound 7, 3-{[4-(4-chlorophenyl)-1,4-diazepan-1-yl]methyl}-1H-pyrrolo[2,3-b]pyridine, HCl], on D2 receptor [4], the “fold lower affinity for the D2 receptor than compound 6” value is 7 fold. Besides, the “fold lower affinity for the D4 receptor than compound 6” value on D4 receptor [1] (same assay procedure in the same laboratory) was found to be 3 fold.
For the molecule `O=C(CCCN1CCN(c2ccc(Cl)cc2)CC1)c1ccc(F)cc1` [Compound 1], the “fold D2 potency conferred by butyrophenone (compound 1 vs L745,870)” value on D2 receptor [5] is less than 4 fold. The D4 selectivity at D4 receptor [6] is reported as 15 fold.
